Measured values from ChEMBL document CHEMBL1143824, “National survey on the susceptibility of Bacteroides fragilis group: report and analysis of trends in the United States from 1997 to 2004” (2007).
Values after ≈ are worked out from the molar mass of the structure shown.

Experiments:
Format in all cases: functional
Bacteroides stercoris [1] = test: Antimicrobial activity against Bacteroides stercoris isolates by agar dilution method
Bacteroides ovatus [2] = test: Antimicrobial activity against Bacteroides ovatus assessed as percent resistant isolates
Parabacteroides merdae [3] = test: Antimicrobial activity against Bacteroides merdae assessed as percent resistant isolates
Bacteroides eggerthii [4] = test: Antimicrobial activity against Bacteroides eggerthii isolates by agar dilution method
[5] = system: Bacteroides thetaiotaomicron; test: Antimicrobial activity against Bacteroides thetaiotaomicron assessed as percent resistant isolates
Bacteroides caccae [6] = test: Antimicrobial activity against Bacteroides caccae isolates by agar dilution method
Bacteroides fragilis [7] = test: Antimicrobial activity against Bacteroides fragilis isolates by agar dilution method
Phocaeicola vulgatus [8] = test: Antimicrobial activity against Bacteroides vulgatus assessed as percent resistant isolates
[9] = system: Parabacteroides distasonis; test: Antimicrobial activity against Bacteroides distasonis assessed as percent resistant isolates
Phocaeicola vulgatus [10] = test: Antimicrobial activity against Bacteroides vulgatus isolates by agar dilution method
Bacteroides uniformis [11] = test: Antimicrobial activity against Bacteroides uniformis assessed as percent resistant isolates
Bacteroides stercoris [12] = test: Antimicrobial activity against Bacteroides stercoris assessed as percent resistant isolates
Bacteroides eggerthii [13] = test: Antimicrobial activity against Bacteroides eggerthii assessed as percent resistant isolates
Bacteroides ovatus [14] = test: Antimicrobial activity against Bacteroides ovatus isolates by agar dilution method
[15] = system: Parabacteroides distasonis; test: Antimicrobial activity against Bacteroides distasonis isolates by agar dilution method
Bacteroides fragilis [16] = test: Antimicrobial activity against Bacteroides fragilis assessed as percent resistant isolates
Bacteroides caccae [17] = test: Antimicrobial activity against Bacteroides caccae assessed as percent resistant isolates
[18] = system: Bacteroides thetaiotaomicron; test: Antimicrobial activity against Bacteroides thetaiotaomicron isolates by agar dilution method
Parabacteroides merdae [19] = test: Antimicrobial activity against Bacteroides merdae isolates by agar dilution method
Bacteroides uniformis [20] = test: Antimicrobial activity against Bacteroides uniformis isolates by agar dilution method

Structure (SMILES)	MIC (Bacteroides stercoris [1])	MIC90 (Bacteroides stercoris [1])	Activity (Parabacteroides merdae [3])	MIC (Bacteroides eggerthii [4])	MIC90 (Bacteroides eggerthii [4])	Activity [5]	MIC (Bacteroides caccae [6])	MIC90 (Bacteroides caccae [6])	MIC (Bacteroides fragilis [7])	MIC90 (Bacteroides fragilis [7])	Activity (Phocaeicola vulgatus [8])	Activity [9]	MIC (Phocaeicola vulgatus [10])	MIC90 (Phocaeicola vulgatus [10])	Activity (Bacteroides uniformis [11])	Activity (Bacteroides stercoris [12])	Activity (Bacteroides eggerthii [13])	MIC90 [15]	Activity (Bacteroides fragilis [16])	Activity (Bacteroides caccae [17])	further results
COC1(NC(=O)Cc2cccs2)C(=O)N2C(C(=O)O)=C(COC(N)=O)CS[C@@H]21 (single isomer, unassigned) [CEFOXITIN]	17.6 µg/mL (≈ 41.2 µM)	64 µg/mL (≈ 150 µM)	10.9%	17.6 µg/mL (≈ 41.2 µM)	64 µg/mL (≈ 150 µM)	16.8%	17.6 µg/mL (≈ 41.2 µM)	64 µg/mL (≈ 150 µM)	15.4 µg/mL (≈ 36.1 µM)	32 µg/mL (≈ 74.9 µM)	0.3%	29.9%	10.5 µg/mL (≈ 24.6 µM)	32 µg/mL (≈ 74.9 µM)	7.5%	10.9%	10.9%	128 µg/mL (≈ 299 µM)	5.2%	10.9%	Activity (Bacteroides ovatus [2]): 17.2%; MIC (Bacteroides ovatus [14]): 27.2 µg/mL (≈ 63.5 µM); MIC90 (Bacteroides ovatus [14]): 64 µg/mL (≈ 150 µM); MIC [15]: 34.2 µg/mL (≈ 80 µM); MIC [18]: 29.5 µg/mL (≈ 69 µM); MIC90 [18]: 64 µg/mL (≈ 150 µM); MIC (Parabacteroides merdae [19]): 17.6 µg/mL (≈ 41.2 µM); MIC90 (Parabacteroides merdae [19]): 64 µg/mL (≈ 150 µM); MIC (Bacteroides uniformis [20]): 12.9 µg/mL (≈ 30.2 µM); MIC90 (Bacteroides uniformis [20]): 32 µg/mL (≈ 74.9 µM)
CCC[C@@H]1C[C@@H](C(=O)NC([C@H](C)Cl)[C@H]2O[C@H](SC)[C@H](O)[C@@H](O)[C@H]2O)N(C)C1 (single isomer, unassigned) [CLINDAMYCIN]	3.63 µg/mL (≈ 8.54 µM)	256 µg/mL (≈ 602 µM)	28.2%	3.63 µg/mL (≈ 8.54 µM)	256 µg/mL (≈ 602 µM)	33.3%	3.63 µg/mL (≈ 8.54 µM)	256 µg/mL (≈ 602 µM)	1.89 µg/mL (≈ 4.45 µM)	256 µg/mL (≈ 602 µM)	35.3%	29.6%	4.31 µg/mL (≈ 10.1 µM)	256 µg/mL (≈ 602 µM)	28.9%	28.2%	28.2%	256 µg/mL (≈ 602 µM)	19.3%	28.2%	Activity (Bacteroides ovatus [2]): 33.4%; MIC (Bacteroides ovatus [14]): 5.89 µg/mL (≈ 13.9 µM); MIC90 (Bacteroides ovatus [14]): 256 µg/mL (≈ 602 µM); MIC [15]: 4.51 µg/mL (≈ 10.6 µM); MIC [18]: 6.62 µg/mL (≈ 15.6 µM); MIC90 [18]: 256 µg/mL (≈ 602 µM); MIC (Parabacteroides merdae [19]): 3.63 µg/mL (≈ 8.54 µM); MIC90 (Parabacteroides merdae [19]): 256 µg/mL (≈ 602 µM); MIC (Bacteroides uniformis [20]): 4.22 µg/mL (≈ 9.93 µM); MIC90 (Bacteroides uniformis [20]): 256 µg/mL (≈ 602 µM)
C[C@@H](O)[C@H]1C(=O)N2C(C(=O)O)=C(SC3CNC(C(=O)Nc4cccc(C(=O)O)c4)C3)[C@H](C)[C@H]12 (single isomer, unassigned) [ERTAPENEM]	1.03 µg/mL (≈ 2.17 µM)	4 µg/mL (≈ 8.41 µM)	0.5%	1.03 µg/mL (≈ 2.17 µM)	4 µg/mL (≈ 8.41 µM)	0.4%	1.03 µg/mL (≈ 2.17 µM)	4 µg/mL (≈ 8.41 µM)	0.79 µg/mL (≈ 1.66 µM)	2 µg/mL (≈ 4.21 µM)	0.3%	1.5%	0.82 µg/mL (≈ 1.72 µM)	2 µg/mL (≈ 4.21 µM)	0.5%	0.5%	0.5%	4 µg/mL (≈ 8.41 µM)	1.4%	0.5%	Activity (Bacteroides ovatus [2]): 0.6%; MIC (Bacteroides ovatus [14]): 1.58 µg/mL (≈ 3.32 µM); MIC90 (Bacteroides ovatus [14]): 4 µg/mL (≈ 8.41 µM); MIC [15]: 1.77 µg/mL (≈ 3.72 µM); MIC [18]: 1.69 µg/mL (≈ 3.55 µM); MIC90 [18]: 4 µg/mL (≈ 8.41 µM); MIC (Parabacteroides merdae [19]): 1.03 µg/mL (≈ 2.17 µM); MIC90 (Parabacteroides merdae [19]): 4 µg/mL (≈ 8.41 µM); MIC (Bacteroides uniformis [20]): 0.88 µg/mL (≈ 1.85 µM); MIC90 (Bacteroides uniformis [20]): 2 µg/mL (≈ 4.21 µM)
C[C@@H](O)[C@H]1C(=O)N2C(C(=O)O)=C(SCCNC=N)C[C@H]12 [IMIPENEM ANHYDROUS]	0.35 µg/mL (≈ 1.17 µM)	1 µg/mL (≈ 3.34 µM)	0%	0.35 µg/mL (≈ 1.17 µM)	1 µg/mL (≈ 3.34 µM)	0.2%	0.35 µg/mL (≈ 1.17 µM)	1 µg/mL (≈ 3.34 µM)	0.31 µg/mL (≈ 1.04 µM)	1 µg/mL (≈ 3.34 µM)	0.3%	0.4%	0.5 µg/mL (≈ 1.67 µM)	1 µg/mL (≈ 3.34 µM)	0.5%	0%	0%	2 µg/mL (≈ 6.68 µM)	0.5%	0%	Activity (Bacteroides ovatus [2]): 0.2%; MIC (Bacteroides ovatus [14]): 0.39 µg/mL (≈ 1.3 µM); MIC90 (Bacteroides ovatus [14]): 1 µg/mL (≈ 3.34 µM); MIC [15]: 0.95 µg/mL (≈ 3.17 µM); MIC [18]: 0.45 µg/mL (≈ 1.5 µM); MIC90 [18]: 1 µg/mL (≈ 3.34 µM); MIC (Parabacteroides merdae [19]): 0.35 µg/mL (≈ 1.17 µM); MIC90 (Parabacteroides merdae [19]): 1 µg/mL (≈ 3.34 µM); MIC (Bacteroides uniformis [20]): 0.43 µg/mL (≈ 1.44 µM); MIC90 (Bacteroides uniformis [20]): 1 µg/mL (≈ 3.34 µM)
C[C@@H](O)[C@H]1C(=O)N2C(C(=O)O)=C(S[C@@H]3CN[C@H](C(=O)N(C)C)C3)[C@H](C)[C@H]12 [MEROPENEM]	0.4 µg/mL (≈ 1.04 µM)	1 µg/mL (≈ 2.61 µM)	0.5%	0.4 µg/mL (≈ 1.04 µM)	1 µg/mL (≈ 2.61 µM)	0.1%	0.4 µg/mL (≈ 1.04 µM)	1 µg/mL (≈ 2.61 µM)	0.38 µg/mL (≈ 0.991 µM)	1 µg/mL (≈ 2.61 µM)	0%	1.1%	0.47 µg/mL (≈ 1.23 µM)	1 µg/mL (≈ 2.61 µM)	0.5%	0.5%	0.5%	2 µg/mL (≈ 5.22 µM)	1%	0.5%	MIC [18]: 0.47 µg/mL (≈ 1.23 µM); MIC90 [18]: 1 µg/mL (≈ 2.61 µM); MIC (Parabacteroides merdae [19]): 0.4 µg/mL (≈ 1.04 µM); MIC90 (Parabacteroides merdae [19]): 1 µg/mL (≈ 2.61 µM); MIC (Bacteroides uniformis [20]): 0.41 µg/mL (≈ 1.07 µM); MIC90 (Bacteroides uniformis [20]): 1 µg/mL (≈ 2.61 µM)
COc1c(N2C[C@@H]3CCCN[C@@H]3C2)c(F)cc2c(=O)c(C(=O)O)cn(C3CC3)c12 [MOXIFLOXACIN]	3.85 µg/mL (≈ 9.59 µM)	32 µg/mL (≈ 79.7 µM)	36.4%	3.85 µg/mL (≈ 9.59 µM)	32 µg/mL (≈ 79.7 µM)	26.3%	3.85 µg/mL (≈ 9.59 µM)	32 µg/mL (≈ 79.7 µM)	1.83 µg/mL (≈ 4.56 µM)	8 µg/mL (≈ 19.9 µM)	54.7%	29.2%	7.92 µg/mL (≈ 19.7 µM)	64 µg/mL (≈ 159 µM)	38.6%	36.4%	36.4%	16 µg/mL (≈ 39.9 µM)	27.3%	36.4%	Activity (Bacteroides ovatus [2]): 38.3%; MIC (Bacteroides ovatus [14]): 5.49 µg/mL (≈ 13.7 µM); MIC90 (Bacteroides ovatus [14]): 32 µg/mL (≈ 79.7 µM); MIC [15]: 2.32 µg/mL (≈ 5.78 µM); MIC [18]: 3.71 µg/mL (≈ 9.24 µM); MIC90 [18]: 32 µg/mL (≈ 79.7 µM); MIC (Parabacteroides merdae [19]): 3.85 µg/mL (≈ 9.59 µM); MIC90 (Parabacteroides merdae [19]): 32 µg/mL (≈ 79.7 µM); MIC (Bacteroides uniformis [20]): 5.57 µg/mL (≈ 13.9 µM); MIC90 (Bacteroides uniformis [20]): 32 µg/mL (≈ 79.7 µM)
CN(C)c1cc(NC(=O)CNC(C)(C)C)c(O)c2c1C[C@H]1C[C@H]3[C@H](N(C)C)C(O)=C(C(N)=O)C(=O)[C@@]3(O)C(O)=C1C2=O [TIGECYCLINE]	1.51 µg/mL (≈ 2.58 µM)	8 µg/mL (≈ 13.7 µM)	7.2%	1.51 µg/mL (≈ 2.58 µM)	8 µg/mL (≈ 13.7 µM)	3.6%	1.51 µg/mL (≈ 2.58 µM)	8 µg/mL (≈ 13.7 µM)	1.59 µg/mL (≈ 2.71 µM)	8 µg/mL (≈ 13.7 µM)	1.6%	2.1%	1.05 µg/mL (≈ 1.79 µM)	4 µg/mL (≈ 6.83 µM)	3.4%	7.2%	7.2%	8 µg/mL (≈ 13.7 µM)	5.1%	7.2%	Activity (Bacteroides ovatus [2]): 3.3%; MIC (Bacteroides ovatus [14]): 1.52 µg/mL (≈ 2.6 µM); MIC90 (Bacteroides ovatus [14]): 8 µg/mL (≈ 13.7 µM); MIC [15]: 2.09 µg/mL (≈ 3.57 µM); MIC [18]: 1.57 µg/mL (≈ 2.68 µM); MIC90 [18]: 8 µg/mL (≈ 13.7 µM); MIC (Parabacteroides merdae [19]): 1.51 µg/mL (≈ 2.58 µM); MIC90 (Parabacteroides merdae [19]): 8 µg/mL (≈ 13.7 µM); MIC (Bacteroides uniformis [20]): 0.77 µg/mL (≈ 1.31 µM); MIC90 (Bacteroides uniformis [20]): 4 µg/mL (≈ 6.83 µM)
